Reference: the supplement of paper PMC10307832

Each cell line was assayed with COc1cc(Nc2ncc(F)c(Nc3ccc4c(n3)NC(=O)C(C)(C)O4)n2)cc(OC)c1OC [R406] + CS(=O)(=O)CCNCc1ccc(-c2ccc3ncnc(Nc4ccc(OCc5cccc(F)c5)c(Cl)c4)c3c2)o1 [Lapatinib] (partner 2 µM) (assay: relative viability (nuclei count vs DMSO), 5 days (fraction); higher = more cells survive). Conditions: first compound 0.08 µM.
In short: (§1)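 Lung cancer cell lines, seeded in 1536-well plates, were treated the following day by pin tool with a single drug or with five library-drug doses (not always all listed) in √10 steps on top of a fixed anchor-drug dose. Cells were fixed and nuclei stained in one step after 5 days, and nuclei were counted. Relative viability is the nuclei count for treated wells divided by that for vehicle wells, reported as medians of duplicate plates.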

Row | Cell Line | relative viability
1 | HCC-15 | 0.822
2 | PC-3 [JPC-3] | 0.457
3 | EKVX | 0.247
4 | LC-2-ad | 0.986
5 | NCI-H1563 | 0.886
6 | NCI-H1975 | 0.779
7 | SK-LU-1 | 0.875
8 | ABC-1 | 0.85
9 | NCI-H1944 | 0.756
10 | NCI-H661 | 0.435
11 | RERF-LC-KJ | 0.682

Same assay, conditions: first compound 0.253 µM

Row | Cell Line | relative viability
12 | HCC-15 | 1.02
13 | PC-3 [JPC-3] | 0.501
14 | EKVX | 0.239
15 | LC-2-ad | 0.847
16 | NCI-H1563 | 1.06
17 | NCI-H1975 | 1.01
18 | SK-LU-1 | 0.93
19 | ABC-1 | 1.07
20 | NCI-H1944 | 0.862
21 | NCI-H661 | 0.48
22 | RERF-LC-KJ | 0.876

Same assay, conditions: first compound 0.8 µM

Row | Cell Line | relative viability
23 | HCC-15 | 0.94
24 | PC-3 [JPC-3] | 0.503
25 | EKVX | 0.18
26 | LC-2-ad | 1.03
27 | NCI-H1563 | 1.06
28 | NCI-H1975 | 1.14
29 | SK-LU-1 | 1.09
30 | ABC-1 | 1.09
31 | NCI-H1944 | 0.855
32 | NCI-H661 | 0.413
33 | RERF-LC-KJ | 1.01

Same assay, conditions: first compound 2.53 µM

Row | Cell Line | relative viability
34 | PC-3 [JPC-3] | 0.406
35 | EKVX | 0.104
36 | LC-2-ad | 0.112
37 | NCI-H1563 | 0.506
38 | NCI-H1975 | 0.221
39 | SK-LU-1 | 0.491
40 | ABC-1 | 0.875
41 | NCI-H1944 | 0.559
42 | NCI-H661 | 0.362
43 | RERF-LC-KJ | 0.761

Same assay, conditions: first compound 8 µM

Row | Cell Line | relative viability
44 | HCC-15 | 0.687
45 | PC-3 [JPC-3] | 0.418
46 | EKVX | 0.176
47 | LC-2-ad | 0.0913
48 | NCI-H1563 | 0.574
49 | NCI-H1975 | 0.169
50 | SK-LU-1 | 0.303
51 | ABC-1 | 0.705
52 | NCI-H1944 | 0.614
53 | NCI-H661 | 0.277
54 | RERF-LC-KJ | 0.794

What follows are cell lines tested with COc1cc(Nc2ncc(F)c(Nc3ccc4c(n3)NC(=O)C(C)(C)O4)n2)cc(OC)c1OC [R406] + C[C@]1(O)C[C@@H](c2nc(-c3ccc4ccc(-c5ccccc5)nc4c3)c3c(N)nccn32)C1 [Linsitinib] (partner 1 µM) in the same assay as above. Conditions: first compound 0.08 µM.
In short: as §1

Row | Cell Line | relative viability
55 | HCC-15 | 0.856
56 | PC-3 [JPC-3] | 0.981
57 | EKVX | 1.05
58 | LC-2-ad | 0.828
59 | NCI-H1563 | 1.12
60 | NCI-H1975 | 0.875
61 | SK-LU-1 | 1.03
62 | ABC-1 | 0.863
63 | NCI-H1944 | 1.21
64 | NCI-H661 | 0.436
65 | RERF-LC-KJ | 0.848

Same assay, conditions: first compound 0.253 µM

Row | Cell Line | relative viability
66 | HCC-15 | 0.914
67 | PC-3 [JPC-3] | 0.977
68 | EKVX | 1.32
69 | LC-2-ad | 0.832
70 | NCI-H1563 | 1.31
71 | NCI-H1975 | 1.06
72 | SK-LU-1 | 1.07
73 | ABC-1 | 1.03
74 | NCI-H1944 | 1.24
75 | NCI-H661 | 0.72
76 | RERF-LC-KJ | 0.846

Same assay, conditions: first compound 0.8 µM

Row | Cell Line | relative viability
77 | HCC-15 | 1.01
78 | PC-3 [JPC-3] | 1.01
79 | EKVX | 1.19
80 | LC-2-ad | 0.729
81 | NCI-H1563 | 1.29
82 | NCI-H1975 | 0.981
83 | SK-LU-1 | 1.07
84 | ABC-1 | 0.803
85 | NCI-H1944 | 1.22
86 | NCI-H661 | 0.515
87 | RERF-LC-KJ | 1.03

Same assay, conditions: first compound 2.53 µM

Row | Cell Line | relative viability
88 | PC-3 [JPC-3] | 1
89 | EKVX | 0.9
90 | LC-2-ad | 0.385
91 | NCI-H1563 | 1.2
92 | NCI-H1975 | 0.467
93 | SK-LU-1 | 0.595
94 | ABC-1 | 0.594
95 | NCI-H1944 | 0.879
96 | NCI-H661 | 0.39
97 | RERF-LC-KJ | 0.657

Same assay, conditions: first compound 8 µM

Row | Cell Line | relative viability
98 | HCC-15 | 0.776
99 | PC-3 [JPC-3] | 0.791
100 | EKVX | 0.688
101 | LC-2-ad | 0.158
102 | NCI-H1563 | 1.16
103 | NCI-H1975 | 0.186
104 | SK-LU-1 | 0.292
105 | ABC-1 | 0.555
106 | NCI-H1944 | 0.741
107 | NCI-H661 | 0.335
108 | RERF-LC-KJ | 0.695

What follows are cell lines tested with COc1cc(Nc2ncc(F)c(Nc3ccc4c(n3)NC(=O)C(C)(C)O4)n2)cc(OC)c1OC [R406] + C[C@@H](Oc1cc(-c2cnn(C3CCNCC3)c2)cnc1N)c1c(Cl)ccc(F)c1Cl [Crizotinib] (partner 1 µM) in the same assay as above. Conditions: first compound 0.08 µM.
In short: as §1

Row | Cell Line | relative viability
109 | HCC-15 | 0.837
110 | PC-3 [JPC-3] | 1.04
111 | EKVX | 0.949
112 | LC-2-ad | 0.436
113 | NCI-H1563 | 0.791
114 | NCI-H1975 | 0.949
115 | SK-LU-1 | 0.997
116 | ABC-1 | 1.24
117 | NCI-H1944 | 1.1
118 | RERF-LC-KJ | 0.762

Same assay, conditions: first compound 0.253 µM

Row | Cell Line | relative viability
119 | HCC-15 | 1.01
120 | PC-3 [JPC-3] | 1
121 | EKVX | 0.986
122 | LC-2-ad | 0.456
123 | NCI-H1563 | 0.868
124 | NCI-H1975 | 1.13
125 | SK-LU-1 | 1.07
126 | ABC-1 | 1.38
127 | NCI-H1944 | 1.24
128 | NCI-H661 | 1.01
129 | RERF-LC-KJ | 0.838

Same assay, conditions: first compound 0.8 µM

Row | Cell Line | relative viability
130 | HCC-15 | 0.834
131 | PC-3 [JPC-3] | 1.02
132 | EKVX | 1.09
133 | LC-2-ad | 0.455
134 | NCI-H1563 | 0.891
135 | NCI-H1975 | 0.977
136 | SK-LU-1 | 1.15
137 | ABC-1 | 1.19
138 | NCI-H1944 | 1.04
139 | NCI-H661 | 1.02
140 | RERF-LC-KJ | 0.875

Same assay, conditions: first compound 2.53 µM

Row | Cell Line | relative viability
141 | PC-3 [JPC-3] | 0.98
142 | EKVX | 0.867
143 | LC-2-ad | 0.381
144 | NCI-H1563 | 0.913
145 | NCI-H1975 | 0.46
146 | SK-LU-1 | 0.424
147 | ABC-1 | 0.841
148 | NCI-H1944 | 0.875
149 | NCI-H661 | 0.882
150 | RERF-LC-KJ | 0.81

Same assay, conditions: first compound 8 µM

Row | Cell Line | relative viability
151 | HCC-15 | 0.635
152 | PC-3 [JPC-3] | 0.885
153 | EKVX | 0.806
154 | LC-2-ad | 0.357
155 | NCI-H1563 | 0.619
156 | NCI-H1975 | 0.221
157 | SK-LU-1 | 0.155
158 | ABC-1 | 0.311
159 | NCI-H1944 | 0.737
160 | NCI-H661 | 1.14
161 | RERF-LC-KJ | 0.771

The cell lines below were run with O=C(/C=C/c1cccnc1)NCCCCC1CCN(C(=O)c2ccccc2)CC1 [Daporinad] + COc1cccc2cc(-c3nc([C@H]4CC[C@H](C(=O)O)CC4)n4ncnc(N)c34)[nH]c12 [OSI-027] (partner 0.5 µM) in the same assay as above. Conditions: first compound 0.0005 µM.
In short: as §1

Row | Cell Line | relative viability
162 | HCC-15 | 0.669
163 | PC-3 [JPC-3] | 0.802
164 | EKVX | 0.692
165 | LC-2-ad | 0.832
166 | NCI-H1563 | 0.754
167 | NCI-H1975 | 0.753
168 | SK-LU-1 | 0.358
169 | ABC-1 | 0.485
170 | NCI-H1944 | 0.447
171 | NCI-H661 | 0.811
172 | RERF-LC-KJ | 0.541

Same assay, conditions: first compound 0.001581 µM

Row | Cell Line | relative viability
173 | HCC-15 | 0.807
174 | PC-3 [JPC-3] | 0.707
175 | EKVX | 0.738
176 | LC-2-ad | 1.12
177 | NCI-H1563 | 0.749
178 | NCI-H1975 | 0.738
179 | SK-LU-1 | 0.335
180 | ABC-1 | 0.472
181 | NCI-H1944 | 0.422
182 | NCI-H661 | 0.719
183 | RERF-LC-KJ | 0.63

Same assay, conditions: first compound 0.005 µM

Row | Cell Line | relative viability
184 | HCC-15 | 0.789
185 | PC-3 [JPC-3] | 0.874
186 | EKVX | 0.683
187 | LC-2-ad | 1.06
188 | NCI-H1563 | 0.807
189 | NCI-H1975 | 0.8
190 | SK-LU-1 | 0.454
191 | ABC-1 | 0.704
192 | NCI-H1944 | 0.527
193 | NCI-H661 | 0.74
194 | RERF-LC-KJ | 0.648

Same assay, conditions: first compound 0.01581 µM

Row | Cell Line | relative viability
195 | HCC-15 | 0.779
196 | PC-3 [JPC-3] | 0.823
197 | EKVX | 0.806
198 | LC-2-ad | 1.01
199 | NCI-H1563 | 0.719
200 | NCI-H1975 | 0.672
201 | SK-LU-1 | 0.348
202 | ABC-1 | 0.517
203 | NCI-H1944 | 0.517
204 | NCI-H661 | 0.341
205 | RERF-LC-KJ | 0.612
